Experimental data: ChEMBL document CHEMBL1201862, “PubChem BioAssay data set” (2004)
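Method: 48-hour compound exposure of cells in 96-well plates, five concentrations, linear interpolation of endpoints. At the GI50, growth is halved.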 Calls of active or inactive are those of the source. No stated cut-off is given here; in the data, active = GI50 up to about 1.1 µM and inactive = higher.

Key:
Experiment in all cases: inhibition of tumour cell growth, NCI panel, 48 h
CCRF-CEM = system: CCRF-CEM
HOP-92 = system: HOP-92
IGROV-1 = system: IGROV-1
K562 = system: K562
MDA-N = system: MDA-N
Malme-3M = system: Malme-3M
NCI-H226 = system: NCI-H226
NCI-H23 = system: NCI-H23
OVCAR-3 = system: OVCAR-3
OVCAR-4 = system: OVCAR-4
OVCAR-8 = system: OVCAR-8
RPMI-8226 = system: RPMI-8226
RXF 393 = system: RXF 393
SF-268 = system: SF-268
SK-MEL-28 = system: SK-MEL-28
SK-MEL-5 = system: SK-MEL-5
SK-OV-3 = system: SK-OV-3
SNB-19 = system: SNB-19
SNB-75 = system: SNB-75
U-251 = system: U-251

SMILES | GI50 (CCRF-CEM) | GI50 (HOP-92) | GI50 (IGROV-1) | GI50 (K562) | GI50 (MDA-N) | GI50 (Malme-3M) | GI50 (NCI-H226) | GI50 (NCI-H23) | GI50 (OVCAR-3) | GI50 (OVCAR-4) | GI50 (OVCAR-8) | GI50 (RPMI-8226) | GI50 (RXF 393) | GI50 (SF-268) | GI50 (SK-MEL-28) | GI50 (SK-MEL-5) | GI50 (SK-OV-3) | GI50 (SNB-19) | GI50 (SNB-75) | GI50 (U-251)
Cc1nc2c(=O)[nH]c(=O)nc-2n(CCO)c1C | > 100 µM (inactive) | > 100 µM (inactive) | > 100 µM (inactive) | > 100 µM (inactive) | > 100 µM (inactive) | > 100 µM (inactive) | > 100 µM (inactive) | > 100 µM (inactive) | > 100 µM (inactive) | > 100 µM (inactive) | > 100 µM (inactive) | > 100 µM (inactive) | > 100 µM (inactive) | > 100 µM (inactive) | > 100 µM (inactive) | > 100 µM (inactive) | > 100 µM (inactive) | > 100 µM (inactive) | 82 µM (inactive) | > 100 µM (inactive)
C/C=C(/C)C(=O)O[C@@H]1CCN2CC[C@H](COC(=O)/C(=C/C)CO)C12 (stereo not given in full) | 37.7 µM (inactive) | 58.2 µM (inactive) | > 100 µM (inactive) | 11.2 µM (inactive) | 39.2 µM (inactive) | 32 µM (inactive) | > 100 µM (inactive) | > 100 µM (inactive) | > 100 µM (inactive) | > 100 µM (inactive) | > 100 µM (inactive) | 33.5 µM (inactive) | > 44.9 µM (inactive) | > 100 µM (inactive) | > 75 µM (inactive) | 26.9 µM (inactive) | > 100 µM (inactive) | > 100 µM (inactive) | > 95.3 µM (inactive) | > 100 µM (inactive)
C=CCC1CC(n2cc(C)c(=O)[nH]c2=O)OC1CO[Si](C)(C)C(C)(C)C (stereo not given) | 12.1 µM (inactive) | 15.8 µM (inactive) | 11.2 µM (inactive) | 0.163 µM (active) | 14 µM (inactive) | 10.5 µM (inactive) | 13.2 µM (inactive) | 12.5 µM (inactive) | 15.9 µM (inactive) | 12.1 µM (inactive) | 15.1 µM (inactive) | 11.9 µM (inactive) | 4.06 µM (inactive) | 15.6 µM (inactive) | 16.3 µM (inactive) | 15.4 µM (inactive) | 14 µM (inactive) | 16.2 µM (inactive) | 11.8 µM (inactive) | 13.6 µM (inactive)
NC(=O)NOCC1NC(=O)NC1=O (stereo not given) | 4.16 µM (inactive) | > 100 µM (inactive) | > 100 µM (inactive) | > 100 µM (inactive) | > 100 µM (inactive) | > 100 µM (inactive) | > 100 µM (inactive) | > 100 µM (inactive) | > 100 µM (inactive) | > 100 µM (inactive) | > 100 µM (inactive) | > 100 µM (inactive) | > 100 µM (inactive) | > 100 µM (inactive) | > 100 µM (inactive) | > 100 µM (inactive) | > 100 µM (inactive) | > 100 µM (inactive) | > 100 µM (inactive) | > 100 µM (inactive)
COC(=O)C1=C([C@H]2COC(C)(C)O2)[C@H]2C[C@@H]1[C@@H]1OC(C)(C)O[C@@H]12 | > 100 µM (inactive) | 38.7 µM (inactive) | > 100 µM (inactive) | > 100 µM (inactive) | > 100 µM (inactive) | > 100 µM (inactive) | > 100 µM (inactive) | > 100 µM (inactive) | > 100 µM (inactive) | > 100 µM (inactive) | > 100 µM (inactive) | > 100 µM (inactive) | > 100 µM (inactive) | > 100 µM (inactive) | > 100 µM (inactive) | > 100 µM (inactive) | > 100 µM (inactive) | > 100 µM (inactive) | > 100 µM (inactive) | > 100 µM (inactive)
O=c1c2cc([N+](=O)[O-])ccc2n2n1Cc1ccccc1C2 | > 100 µM (inactive) | > 100 µM (inactive) | > 100 µM (inactive) | > 100 µM (inactive) | > 100 µM (inactive) | > 100 µM (inactive) | > 100 µM (inactive) | > 100 µM (inactive) | > 100 µM (inactive) | > 100 µM (inactive) | > 100 µM (inactive) | > 100 µM (inactive) | > 100 µM (inactive) | > 100 µM (inactive) | > 100 µM (inactive) | 84.3 µM (inactive) | > 100 µM (inactive) | > 100 µM (inactive) | > 100 µM (inactive) | > 100 µM (inactive)
COC(=O)Nc1nc2cc(Oc3ccc4nc(NC(=O)OC)[nH]c4c3)ccc2[nH]1 | 0.371 µM (active) | 6.56 µM (inactive) | 1.45 µM (inactive) | 0.942 µM (active) | 0.105 µM (active) | 0.61 µM (active) | 0.925 µM (active) | 1.81 µM (inactive) | 0.149 µM (active) | 1.77 µM (inactive) | 1.41 µM (inactive) | 0.929 µM (active) | 0.74 µM (active) | 1.36 µM (inactive) | 0.713 µM (active) | 0.687 µM (active) | 1.45 µM (inactive) | 1.29 µM (inactive) | 0.701 µM (active) | 0.681 µM (active)
COC(=O)[C@@H]1C=C[C@H](OC2OC(COC(C)=O)C(OC(C)=O)C(OC(C)=O)C2OC(C)=O)n2c(=O)c3ccccc3c(=O)n21 (stereo not given in full) | 4.14 µM (inactive) | 10.1 µM (inactive) | 18.2 µM (inactive) | 5.66 µM (inactive) | > 10 µM (inactive) | 16.9 µM (inactive) | 19.7 µM (inactive) | 18.6 µM (inactive) | 10.4 µM (inactive) | 16.6 µM (inactive) | 16.5 µM (inactive) | 4.66 µM (inactive) | 6.05 µM (inactive) | > 10 µM (inactive) | 13.2 µM (inactive) | 14.7 µM (inactive) | 14.6 µM (inactive) | 19.4 µM (inactive) | 6.71 µM (inactive) | 12 µM (inactive)
CC(CC(C)(C)[N+](C)(C)C)[N+](C)(C)C (stereo not given) | > 100 µM (inactive) | > 100 µM (inactive) | > 100 µM (inactive) | > 100 µM (inactive) | > 100 µM (inactive) | > 10 µM (inactive) | > 100 µM (inactive) | > 100 µM (inactive) | > 100 µM (inactive) | > 100 µM (inactive) | > 100 µM (inactive) | > 100 µM (inactive) | > 100 µM (inactive) | > 100 µM (inactive) | > 100 µM (inactive) | > 100 µM (inactive) | > 100 µM (inactive) | > 100 µM (inactive) | 88.9 µM (inactive) | > 100 µM (inactive)
